Patent US20040242591A1, “Oxazolidinone derivatives as pontential antimicrobials” (priority 2001, published 2004)

Tests used:
S.aureus ATCC 25923 = assay: MIC by agar incorporation method, S.aureus 25923; format: cell-based, Staphylococus aureus; set-up: unit not given here; conditions: Mueller Hinton agar, 10^4 CFU/spot, 18 hours
MRSA 15187 = assay: MIC by agar incorporation method, MRSA 15187; format: cell-based, Methicillin Resistant Staphylococcus aureus; set-up: unit not given here; conditions: Mueller Hinton agar, 10^4 CFU/spot, 24 hours
Text: 2) MRSA 15187—Methicillin Resistant Staphylococcus aureus

MRSA 562 = assay: MIC by agar incorporation method, MRSA 562; format: cell-based, Methicillin Resistant Staphylococcus aureus; set-up: unit not given here; conditions: Mueller Hinton agar, 10^4 CFU/spot, 24 hours
MRSA 33 = assay: MIC by agar incorporation method, MRSA 33; format: cell-based, Methicillin Resistant Staphylococcus aureus; set-up: unit not given here; conditions: Mueller Hinton agar, 10^4 CFU/spot, 24 hours
Ent. faecalis ATCC 29212 = assay: MIC by agar incorporation method, E.faecalis 29212; format: cell-based, Enterococcus faecalis; set-up: unit not given here; conditions: Mueller Hinton agar, 10^4 CFU/spot, 18 hours
Text: 3) Ent. faecalis ATCC 29212—Enterococcus faecalis ATCC 29212

VRE 6A = assay: MIC by agar incorporation method, VRE 6A; format: cell-based, Enterococcus faecium; set-up: unit not given here; conditions: Mueller Hinton agar, 10^4 CFU/spot, 18 hours
Text: 4) Ent. faecium […]—Enterococcus faecium 6A Van®, Cipro®

Strep.pyog. ATCC 19615 = assay: MIC by agar incorporation method, S.pyogenes 19615; format: cell-based, Streptococcus pyogenes; set-up: unit not given here; conditions: Mueller Hinton agar, 10^4 CFU/spot, 18 hours
Text: 6) Strep.pyog. ATCC 19615—Streptococcus pyogenes

Strep. pne. ATCC 6303 = assay: MIC by agar incorporation method, S. pneum 6303; format: cell-based, Streptococcus pneumoniae; conditions: Mueller Hinton agar, 10^4 CFU/spot, 18 hours
Text: 5) Strep. pne. ATCC 6303—Streptococcus pneumoniae ATCC 6303

S. pneum AB 34 = assay: MIC by agar incorporation method, S. pneum AB 34; format: cell-based, Streptococcus pneumoniae; set-up: unit not given here; conditions: Mueller Hinton agar, 10^4 CFU/spot, 18 hours

SMILES | In Vitro (MIC) S.aureus 25923 (S.aureus ATCC 25923) | In Vitro (MIC) MRSA 15187 (MRSA 15187) | In Vitro (MIC) MRSA 562 (MRSA 562) | In Vitro (MIC) MRSA 33 (MRSA 33) | In Vitro (MIC) E.faecalis 29212 (Ent. faecalis ATCC 29212) | In Vitro (MIC) VRE 6A (VRE 6A) | In Vitro (MIC) S.pyogenes 19615 (Strep.pyog. ATCC 19615) | In Vitro (MIC) S. pneum 6303 (Strep. pne. ATCC 6303) [µg/mL] | In Vitro (MIC) S. pneum AB 34 (S. pneum AB 34)
CC(=O)NC[C@H]1CN(c2ccc(N3CCCN(C(=O)c4ccc([N+](=O)[O-])s4)CC3)c(F)c2)C(=O)O1 [Compound No. 54, (S)-N-[[3-[3-Fluoro-4-[N-1-[4-{2-thiophenoyl-(5-nitro)}]homopiperazinyl]phenyl]-2-oxo-5-oxazolidinyl]methyl]acetamide] | 1 | 0.5 | 0.5 | 0.5 | 1 | 0.5 | 0.25 | 8 | 8
CC(=O)NC[C@H]1CN(c2ccc(N3CCN(Cc4oc(C=O)cc4C)CC3)c(F)c2)C(=O)O1 [Compound No. 71] | 4 | 2 | 2 | 4 | >8 | >8 | >8 | >8 | >8
CC(=O)NC[C@H]1CN(c2ccc(N3CCN(Cc4cc(N(C)C)c([N+](=O)[O-])s4)CC3)c(F)c2)C(=O)O1 [Compound No. 19, (S)-N-[[3-[3-Fluoro-[N-1-[4-{2-thiophen-(4-dimethylamino-5-nitro)methyl}]piperazinyl]phenyl]-2-oxo-5-oxazolidinyl]methyl]-acetamide] | 4 | 4 | 8 | 8 | 4 | 4 | 2 | 2 | 2
CC(=O)NC[C@H]1CN(c2ccc(N3CCN(C(=O)c4ccc(N)s4)CC3)c(F)c2)C(=O)O1 [Compound No. 34, (S)-N-[[3-[3-Fluoro-4-[N-1-[4-{2-thiophenoyl-(5-amino)}]piperazinyl]phenyl]-2-oxo-5-oxazolidinyl]methyl]acetamide] | 8 | 8 | 4 | 8 | 4 | 4 | 1 | 4 | 4
CC(=O)NC[C@H]1CN(c2ccc(N3CCN(C(=O)c4ccc([N+](=O)[O-])o4)CC3C)c(F)c2)C(=O)O1 (stereo partly drawn) [Compound No. 59, (S)-N-[[3-[3-Fluoro-4-[N-1-[2-methyl-4-{2furoyl-(5-nitro)}]-piperazinyl]phenyl]-2-oxo-5-oxazolidinyl]methyl]acetamide] | 2 | 1 | 1 | 1 | 1 | 2 | 8 | 8 | 8
CC(=O)NC[C@H]1CN(c2ccc(N3C(C)CN(C(=O)Cc4cccs4)CC3C)c(F)c2)C(=O)O1 (stereo partly drawn) [Compound No. 66, (S)-N-[[3-[3-Fluoro-4-[N-1-[2,6-dimethyl-4-(2-thienylacetyl)]-piperazinyl]phenyl]-2-oxo-5-oxazolidinyl]methyl]acetamide] | 8 | 8 | 8 | 8 | 8 | 8 | 16 | 16 | 16
CC(=O)NC[C@H]1CN(c2ccc(N3CCN(C(=O)c4oc([N+](=O)[O-])cc4C)CC3)c(F)c2)C(=O)O1 [Compound No. 37, (S)-N-[[3-[3-Fluoro-4-[N-1-[4-{2-furoyl-(3-methyl-5-nitro)}]piperazinyl]phenyl]-2-oxo-5-oxazolidinyl]methyl]acetamide] | 0.5 | 0.5 | 0.5 | 0.5 | 0.25 | 0.5 | <0.06 | 0.25 | 0.125
CC(=O)NC[C@H]1CN(c2ccc(N3CCC(NCc4ccc([N+](=O)[O-])o4)CC3)c(F)c2)C(=O)O1 [Compound No. 86, (S)-N-[[3-[3-Fluoro-4-[4-{N-2-furyl-(5-nitro)methyl}-aminopiperidine-1-yl]phenyl]-2-oxo-5-oxazolidinyl]methyl]acetamide] | 1 | 1 | 1 | 1 | 0.5 | 0.5 | <0.25 | 2 | 2
